By IC50 is commonly meant the point on the concentration scale where inhibition reaches its midpoint. High values mean weaker potency, low ones greater potency.

This assay concerns the target T1, Enoyl-acyl carrier reductase (Plasmodium falciparum, UniProt Q9BH77).
T1 sequence (Q9BH77 whole entry): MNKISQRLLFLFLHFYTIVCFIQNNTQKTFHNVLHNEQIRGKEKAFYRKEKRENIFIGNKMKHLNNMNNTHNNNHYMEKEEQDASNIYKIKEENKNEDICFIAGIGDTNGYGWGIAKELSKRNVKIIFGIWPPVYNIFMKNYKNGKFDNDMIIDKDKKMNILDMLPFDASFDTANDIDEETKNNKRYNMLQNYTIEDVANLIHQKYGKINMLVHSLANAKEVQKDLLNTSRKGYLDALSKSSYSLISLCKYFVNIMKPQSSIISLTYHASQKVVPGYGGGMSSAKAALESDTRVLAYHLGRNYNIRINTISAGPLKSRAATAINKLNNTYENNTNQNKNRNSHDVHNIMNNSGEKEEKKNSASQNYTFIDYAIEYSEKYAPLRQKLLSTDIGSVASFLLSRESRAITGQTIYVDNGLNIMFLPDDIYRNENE
The assay can be described thus: Fabl Assay. The note with it: pH 7.4. From the text: Inhibition assay using pfENR.
`O=C(CNc1cccc(Cl)c1)N/N=C/c1ccccc1` [Phenylaminoacetic acid benzylidene hydrazine analog, 19]: the half-inhibitory concentration (IC50) was 173 µM. The result for `CN(C)c1ccc(/C=N/NC(=O)CNc2ccc(F)cc2)cc1` [Phenylaminoacetic acid benzylidene hydrazine analog, 7] reads 8 µM; that for `O=C(CNc1ccc(Cl)cc1)N/N=C/c1cccc(Br)c1` [Phenylaminoacetic acid benzylidene hydrazine analog, 17], 7 µM.

`O=C(CNc1cccc(F)c1Cl)N/N=C/c1ccccc1` [Phenylaminoacetic acid benzylidene hydrazine analog, 13]: the IC50 was greater than 163 µM.

The compound `O=C(CNc1ccccc1)N/N=C/c1cccc(Br)c1` [Phenylaminoacetic acid benzylidene hydrazine analog, 9] came in with an IC50 of 90 µM. Compound `O=C(CNc1ccc(F)cc1)N/N=C/c1ccccc1O` [Phenylaminoacetic acid benzylidene hydrazine analog, 6] gave an IC50 of 12 µM.

As for `O=C(CNc1cccc(Cl)c1)N/N=C/c1cccc(Br)c1` [Phenylaminoacetic acid benzylidene hydrazine analog, 21], the 50% inhibitory concentration (IC50) is 163 µM. The result for `O=C(CNc1cccc(F)c1Cl)N/N=C/c1ccccc1O` [Phenylaminoacetic acid benzylidene hydrazine analog, 12] reads greater than 155 µM. The result for `O=C(CNc1cccc(Cl)c1)N/N=C/c1ccccc1Cl` [Phenylaminoacetic acid benzylidene hydrazine analog, 20] reads 77 µM; that for `O=C(CNc1ccccc1)N/N=C/c1ccccc1Cl` [Phenylaminoacetic acid benzylidene hydrazine analog, 1], 90 µM. The result for `O=C(CNc1ccccc1)N/N=C/c1ccccc1O` [Phenylaminoacetic acid benzylidene hydrazine analog, 10] reads greater than 185 µM; that for `COc1ccc(/C=N/NC(=O)CNc2ccc(Cl)cc2)cc1OC` [Phenylaminoacetic acid benzylidene hydrazine analog, 3], greater than 143 µM.

In turn, `O=C(CNc1cccc(F)c1Cl)N/N=C/c1ccccc1Cl` [Phenylaminoacetic acid benzylidene hydrazine analog, 14] showed a half-inhibitory concentration (IC50) of 29 µM.

The compound `O=C(CNc1ccc(Cl)cc1)N/N=C/c1ccccc1O` [Phenylaminoacetic acid benzylidene hydrazine analog, 16] displayed an IC50 greater than 164 µM. The result for `COc1ccc(/C=N/NC(=O)CNc2ccccc2)cc1OC` [Phenylaminoacetic acid benzylidene hydrazine analog, 2] reads greater than 159 µM; that for `O=C(CNc1ccccc1)N/N=C/c1ccccc1` [Phenylaminoacetic acid benzylidene hydrazine analog, 8], 197 µM. In the case of `O=C(CNc1ccc(Cl)cc1)N/N=C/c1ccccc1` [Phenylaminoacetic acid benzylidene hydrazine analog, 4], the IC50 amounted to 10 µM. `CN(C)c1ccc(/C=N/NC(=O)CNc2ccccc2)cc1` [Phenylaminoacetic acid benzylidene hydrazine analog, 11]: the half-maximal inhibitory concentration (IC50) was greater than 168 µM.

For `O=C(CNc1ccc(F)cc1)N/N=C/c1ccccc1Cl` [Phenylaminoacetic acid benzylidene hydrazine analog, 18], it took 163 µM to reach half-maximal inhibition (IC50). The result for `O=C(CNc1cccc(F)c1Cl)N/N=C/c1cccc(Br)c1` [Phenylaminoacetic acid benzylidene hydrazine analog, 15] reads greater than 129 µM.

The record behind these values is BindingDB's records for doi:10.1111/cbdd.12118 (Bombay College of Pharmacy, 2013).
